Measured values from ChEMBL document CHEMBL4622854, “Synthetic bioactive olivetol-related amides: The influence of the phenolic group in cannabinoid receptor activity” (Bioorg Med Chem, 2020).
Activity calls are given as the source filed them. The rule behind the calls is not given here.

Legend:
Cannabinoid receptor 1 [1] = molecular target: T1, Cannabinoid receptor 1 (Homo sapiens, UniProt P21554); assay: Displacement of [3H]-CP55940 from human recombinant CB1 receptor expressed in HEK cell membrane; format: cell membranes
T1 sequence (P21554 whole entry): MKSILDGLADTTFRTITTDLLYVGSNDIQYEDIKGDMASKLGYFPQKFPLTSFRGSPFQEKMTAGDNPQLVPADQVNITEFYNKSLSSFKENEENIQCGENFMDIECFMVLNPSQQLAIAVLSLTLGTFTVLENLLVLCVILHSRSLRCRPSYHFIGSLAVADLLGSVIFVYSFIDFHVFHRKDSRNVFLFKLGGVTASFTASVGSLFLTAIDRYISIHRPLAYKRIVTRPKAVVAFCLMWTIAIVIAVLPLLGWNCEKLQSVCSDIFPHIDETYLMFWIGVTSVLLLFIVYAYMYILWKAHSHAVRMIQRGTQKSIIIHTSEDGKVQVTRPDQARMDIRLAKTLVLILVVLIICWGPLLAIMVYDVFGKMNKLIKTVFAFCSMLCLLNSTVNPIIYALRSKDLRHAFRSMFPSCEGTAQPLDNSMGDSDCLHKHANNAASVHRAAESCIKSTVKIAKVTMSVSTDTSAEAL

Cannabinoid receptor 2 [2] = molecular target: T2, Cannabinoid receptor 2 (Homo sapiens, UniProt P34972); assay: Displacement of [3H]-CP55940 from human recombinant CB2 receptor expressed in HEK cell membrane; format: cell membranes
T2 sequence (P34972 whole entry): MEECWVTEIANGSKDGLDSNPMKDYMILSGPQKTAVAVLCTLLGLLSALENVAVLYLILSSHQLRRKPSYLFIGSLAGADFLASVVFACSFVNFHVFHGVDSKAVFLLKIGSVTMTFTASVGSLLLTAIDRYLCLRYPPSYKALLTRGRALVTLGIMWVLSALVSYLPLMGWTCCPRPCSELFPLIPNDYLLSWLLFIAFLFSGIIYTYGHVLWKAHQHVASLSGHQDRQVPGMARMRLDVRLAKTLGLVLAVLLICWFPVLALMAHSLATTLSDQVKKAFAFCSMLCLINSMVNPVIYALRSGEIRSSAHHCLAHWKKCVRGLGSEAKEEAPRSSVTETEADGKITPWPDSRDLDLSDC

Homo sapiens = organism: Homo sapiens; assay: Selectivity ratio of Ki for displacement of [3H]-CP55940 from human recombinant CB1 receptor expressed in HEK293 cell membrane to Ki for displacement of [3H]-CP55940 from human recombinant CB2 receptor expressed in HEK293 cell membrane
HepG2 = assay: Antiproliferation activity against human HepG2 cells assessed as reduction in cell viability at 1 uM incubated for 24 to 72 hrs by MTT assay; format: functional, cell-based
[3] = molecular target: T3, Transient receptor potential cation channel subfamily A member 1 (Rattus norvegicus, UniProt Q6RI86); assay: Antagonist activity at rat recombinant TRPA1 expressed in HEK293 cells assessed as AITC-induced increase of calcium influx preincubated for 5 mins by Fluo-4AM dye based fluorescence assay; format: cell-based
T3 sequence (Q6RI86 whole entry): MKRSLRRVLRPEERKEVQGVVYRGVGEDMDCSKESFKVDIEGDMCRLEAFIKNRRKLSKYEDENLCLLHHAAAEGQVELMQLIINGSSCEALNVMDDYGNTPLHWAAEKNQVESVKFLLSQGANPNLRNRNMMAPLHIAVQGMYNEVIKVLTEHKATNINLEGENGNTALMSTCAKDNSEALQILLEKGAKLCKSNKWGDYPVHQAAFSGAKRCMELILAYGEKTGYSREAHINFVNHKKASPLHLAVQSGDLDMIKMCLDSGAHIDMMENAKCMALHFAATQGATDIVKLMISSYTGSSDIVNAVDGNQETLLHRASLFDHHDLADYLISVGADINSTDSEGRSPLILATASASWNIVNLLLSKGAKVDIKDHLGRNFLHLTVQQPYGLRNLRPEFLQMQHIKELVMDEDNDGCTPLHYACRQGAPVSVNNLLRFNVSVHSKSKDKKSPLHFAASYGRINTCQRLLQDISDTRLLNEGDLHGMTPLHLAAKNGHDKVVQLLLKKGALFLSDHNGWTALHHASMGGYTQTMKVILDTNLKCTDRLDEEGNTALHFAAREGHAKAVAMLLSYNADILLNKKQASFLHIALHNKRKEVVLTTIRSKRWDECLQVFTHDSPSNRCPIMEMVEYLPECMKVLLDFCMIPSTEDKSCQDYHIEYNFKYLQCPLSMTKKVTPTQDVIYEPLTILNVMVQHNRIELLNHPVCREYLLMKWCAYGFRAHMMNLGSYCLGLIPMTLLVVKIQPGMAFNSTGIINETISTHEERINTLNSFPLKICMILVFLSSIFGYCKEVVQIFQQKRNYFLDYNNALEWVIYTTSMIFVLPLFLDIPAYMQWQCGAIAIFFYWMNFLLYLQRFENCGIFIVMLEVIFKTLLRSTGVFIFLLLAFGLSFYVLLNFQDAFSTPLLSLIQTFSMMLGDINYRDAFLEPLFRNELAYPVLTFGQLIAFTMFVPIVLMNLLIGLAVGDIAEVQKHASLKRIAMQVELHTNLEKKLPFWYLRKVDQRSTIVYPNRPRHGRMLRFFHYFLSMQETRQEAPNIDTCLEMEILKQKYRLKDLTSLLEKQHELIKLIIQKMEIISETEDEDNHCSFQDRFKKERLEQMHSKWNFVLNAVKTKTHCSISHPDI

Cannabinoid receptor 1 [4] = molecular target: T1, Cannabinoid receptor 1; assay: Agonist activity at human CB1 receptor expressed in CHO cell membrane assessed as stimulation of [35S]-GTPgammaS binding incubated for 1 hr by liquid scintillation counting assay; format: functional, cell membranes
Cannabinoid receptor 1 [5] = molecular target: T1, Cannabinoid receptor 1; assay: Agonist activity at human CB1 receptor expressed in CHO cell membrane assessed as stimulation of [35S]-GTPgammaS binding incubated for 1 hr by liquid scintillation counting assay relative to control
Cannabinoid receptor 2 [6] = molecular target: T2, Cannabinoid receptor 2; assay: Agonist activity at human CB2 receptor expressed in CHO cell membrane assessed as inhibition of [35S]-GTPgammaS binding incubated for 1 hr by liquid scintillation counting assay; format: functional, cell membranes
Mus musculus [7] = assay: Antinociceptive activity in formalin-induced nociception pain CD-1 mouse model assessed as reduction in pain related behavior in late phase through ip pretreated with compound 10 mins prior to formalin induction measured after 20 to 60 mins by formalin test; format: functional, organism-based
Mus musculus [8] = assay: Antinociceptive activity in formalin-induced nociception pain CD-1 mouse model assessed as reduction in pain related behavior in first phase at 4 mg/kg, ip pretreated with compound 10 mins prior to formalin induction measured from 0 to 10 mins by formalin test; format: functional, organism-based
[9] = molecular target: T4, Transient receptor potential cation channel subfamily V member 1 (Homo sapiens, UniProt Q8NER1); assay: Antagonist activity at human TRPV1 expressed in HEK293 cells assessed as capsaicin-induced increase of calcium influx preincubated for 5 mins by Fluo-4AM dye based fluorescence assay; format: cell-based
T4 sequence (Q8NER1 whole entry): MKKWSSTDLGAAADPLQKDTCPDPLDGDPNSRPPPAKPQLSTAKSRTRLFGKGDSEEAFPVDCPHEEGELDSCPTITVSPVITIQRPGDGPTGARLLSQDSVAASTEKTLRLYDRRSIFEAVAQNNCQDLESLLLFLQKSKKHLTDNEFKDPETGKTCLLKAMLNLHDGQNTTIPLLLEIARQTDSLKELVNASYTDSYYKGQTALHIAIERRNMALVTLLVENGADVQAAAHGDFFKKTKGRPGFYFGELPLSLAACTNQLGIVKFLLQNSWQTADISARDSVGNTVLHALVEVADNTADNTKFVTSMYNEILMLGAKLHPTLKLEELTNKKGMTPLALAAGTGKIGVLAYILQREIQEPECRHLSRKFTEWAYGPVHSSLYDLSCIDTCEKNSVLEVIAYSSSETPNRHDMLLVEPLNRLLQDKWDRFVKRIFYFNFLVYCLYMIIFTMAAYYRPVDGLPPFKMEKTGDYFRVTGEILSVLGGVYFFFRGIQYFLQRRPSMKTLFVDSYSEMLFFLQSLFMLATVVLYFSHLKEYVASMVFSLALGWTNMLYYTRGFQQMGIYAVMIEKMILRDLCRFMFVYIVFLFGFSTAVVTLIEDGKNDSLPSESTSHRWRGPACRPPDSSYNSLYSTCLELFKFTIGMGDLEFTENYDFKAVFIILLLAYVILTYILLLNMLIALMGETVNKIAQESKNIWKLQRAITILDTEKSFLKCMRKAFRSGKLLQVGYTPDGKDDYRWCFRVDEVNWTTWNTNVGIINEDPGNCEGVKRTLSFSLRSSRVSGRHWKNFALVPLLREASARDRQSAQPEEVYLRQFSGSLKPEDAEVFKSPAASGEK

[10] = molecular target: T4, Transient receptor potential cation channel subfamily V member 1; assay: Antagonist activity at human TRPV1 expressed in HEK293 cells assessed as ionomycin-induced increase of calcium influx at 4 uM preincubated for 5 mins by Fluo-4AM dye based fluorescence assay relative to control; format: cell-based
[11] = molecular target: Transient receptor potential cation channel subfamily A member 1 (Rattus norvegicus) (UniProt Q6RI86); assay: Antagonist activity at rat recombinant TRPA1 expressed in HEK293 cells assessed as AITC-induced increase of calcium influx at 100 uM preincubated for 5 mins by Fluo-4AM dye based fluorescence assay relative to control; format: cell-based
Chain of Transient receptor potential cation channel subfamily A member 1 (Rattus norvegicus) (Q6RI86 whole entry): as the sequence (Q6RI86 whole entry) above

Cannabinoid receptor 2 [12] = molecular target: T2, Cannabinoid receptor 2; assay: Agonist activity at human CB2 receptor expressed in CHO cell membrane assessed as stimulation of [35S]-GTPgammaS binding incubated for 1 hr by liquid scintillation counting assay relative to control
Mus musculus [13] = organism: Mus musculus; assay: Antinociceptive activity in formalin-induced nociception pain CD-1 mouse model assessed as reduction in pain related behavior pretreated with compound 10 mins prior to formalin induction co-treated with AM251 measured until 60 mins by formalin test; format: functional, organism-based
Mus musculus [14] = organism: Mus musculus; assay: Antinociceptive activity in formalin-induced nociception pain CD-1 mouse model assessed as reduction in pain related behavior pretreated with compound 10 mins prior to formalin induction co-treated with AM630 measured until 60 mins by formalin test; format: functional, organism-based
[15] = molecular target: T3, Transient receptor potential cation channel subfamily A member 1; assay: Activation of rat recombinant TRPA1 expressed in HEK293 cells assessed as calcium influx preincubated for 5 mins by Fluo-4AM dye based fluorescence assay; format: cell-based
[16] = molecular target: T4, Transient receptor potential cation channel subfamily V member 1; assay: Activation of human TRPV1 expressed in HEK293 cells assessed as calcium influx preincubated for 5 mins by Fluo-4AM dye based fluorescence assay; format: cell-based
Cannabinoid receptor 2 [17] = molecular target: T2, Cannabinoid receptor 2; assay: Agonist activity at human CB2 receptor at 1 nM to 1 uM expressed in CHO cell membrane assessed as stimulation of [35S]-GTPgammaS binding incubated for 1 hr by liquid scintillation counting assay
Cannabinoid receptor 2 [18] = molecular target: T2, Cannabinoid receptor 2; assay: Antagonist activity at human CB2 receptor expressed in CHO cell membrane assessed as inhibition of CP55940-induced [35S]-GTPgammaS binding incubated for 1 hr by liquid scintillation counting
Cannabinoid receptor 2 [19] = molecular target: T2, Cannabinoid receptor 2; assay: Agonist activity at human CB2 receptor at 10 uM expressed in CHO cell membrane assessed as stimulation of [35S]-GTPgammaS binding incubated for 1 hr by liquid scintillation counting assay relative to control
Mus musculus [20] = assay: Antinociceptive activity in formalin-induced nociception pain CD-1 mouse model assessed as reduction in pain related behavior in late phase at 6 mg/kg, ip pretreated with compound 10 mins prior to formalin induction measured after 20 to 60 mins by formalin test; format: functional, organism-based
Mus musculus [21] = assay: Antinociceptive activity in formalin-induced nociception pain CD-1 mouse model assessed as reduction in pain related behavior in late phase at 1 to 3 mg/kg, ip pretreated with compound 10 mins prior to formalin induction measured after 20 to 60 mins by formalin test; format: functional, organism-based

Compound | Ki (Cannabinoid receptor 1 [1]) [µM] | Ki (Cannabinoid receptor 2 [2]) [µM] | Selectivity ratio (Homo sapiens) | also measured
CCCCCCC(C)(C)c1cc(OC)cc(OCCCCCCCCCCC(=O)NCCO)c1 | 3.16 | 0.104 | 30 | 
CCCCCCc1ccc(OC)cc1OCCCCCCCCCCC(=O)NCC1CC1 | 0.693 | 0.0626 | 11.1 | 
C=CCNC(=O)CCCCCCCCCCOc1cc(CCCCC)cc(OC)c1 | 0.0237 | 0.0068 | 3.5 | 
CCCCCc1cc(OC)cc(OCCCCCCCCCCC(=O)NCCO)c1 | 0.0876 | 0.0332 | 2.6 | 
CCCCCCC(C)(C)c1cc(OC)cc(OCCCCCCCCCCC(=O)NCC2CC2)c1 | 3.19 | 0.322 | 9.9 | 
CCCCCc1cc(OCCCCCCCCCCC(=O)NC2CC2)cc(OC(C)C)c1 | 0.0207 | 0.0027 | 7.7 | 
CCCCCCC(C)(C)c1cc(OC)cc(OCCCCCCCCCCC(=O)NC(CO)CO)c1 | > 10 | 1.37 | > 7.3 | 
CCCCCc1cc(OC)cc(OCCCCCCCCCCC(=O)NCC(F)(F)F)c1 | 0.0755 | 0.0229 | 3.3 | 
CCCCCc1cc(OCC)cc(OCCCCCCCCCCC(=O)NC2CC2)c1 | 0.0117 | 0.0067 | 1.8 | 
CCCCCc1cc(O)cc(OCCCCCCCCCCC(=O)NC2CC2)c1 |  |  | 0.4 | 
CCCCCc1cc(OC)cc(OCCCCCCCCCCC(=O)Nc2ccccc2)c1 | 0.845 | 0.309 | 2.7 | 
CCCCCCC(C)(C)c1cc(OC)cc(OCCCCCCCC(=O)NC2CC2)c1 | 0.0011 | 0.0042 | 0.3 | Activity (HepG2): inactive; IC50 [3]: > 100 µM; EC50 (Cannabinoid receptor 1 [4]): 0.0151 µM; Emax (Cannabinoid receptor 1 [5]): 52.5%; EC50 (Cannabinoid receptor 2 [6]): 0.00116 µM; Activity (Mus musculus [7]): Dose-dependent effect; Activity (Mus musculus [8]): Active; IC50 [9]: 0.8 µM; Efficacy [10]: 29.4%; Efficacy [11]: 17.2%; Emax (Cannabinoid receptor 2 [12]): 28.3%; Activity (Mus musculus [13]): inactive; Activity (Mus musculus [14]): Active; EC50 [15]: 11.1 µM; EC50 [16]: 0.12 µM
CCCCCCC(C)(C)c1cc(OC)cc(OCCCCCCCC(=O)NCCO)c1 | 0.0891 | 0.129 | 0.7 | 
CCCCCCc1ccc(OCCCCCCCCCCC(=O)NCC2CC2)cc1OC | 3.25 | 0.0488 | 66.6 | Activity (Cannabinoid receptor 2 [17]): Active; EC50 (Cannabinoid receptor 2 [6]): 0.174 µM; Kb (Cannabinoid receptor 2 [18]): 0.0306 µM; Emax (Cannabinoid receptor 2 [12]): -18.3%
CCCCCc1cc(OC)cc(OCCCCCCCCCCC(=O)NCC2CC2)c1 | 0.297 | 0.0103 | 28.9 | 
CCCCCc1cc(OC)cc(OCCCCCCCCCCC(=O)NC2CC2)c1 | 0.0035 | 0.0012 | 2.9 | EC50 (Cannabinoid receptor 1 [4]): 0.00621 µM; Emax (Cannabinoid receptor 1 [5]): 62.7%; Activity (Cannabinoid receptor 2 [17]): Active; EC50 (Cannabinoid receptor 2 [6]): 0.398 µM; Emax (Cannabinoid receptor 2 [19]): -17.8%; Kb (Cannabinoid receptor 2 [18]): 0.0378 µM; Activity (Mus musculus [20]): Active; Activity (Mus musculus [21]): inactive; Activity (Mus musculus [13]): inactive; Activity (Mus musculus [14]): inactive
CCCCCc1cc(OC)cc(OCCCCCCCC(=O)NCCO)c1 | 0.0761 | 0.0419 | 1.8 | 
C=CCOc1cc(CCCCC)cc(OCCCCCCCCCCC(=O)NC2CC2)c1 | 0.0136 | 0.0047 | 2.9 | 
CCCCCc1cccc(OCCCCCCCCCCC(=O)NC2CC2)c1 | 0.0059 | 0.0035 | 1.7 | EC50 (Cannabinoid receptor 1 [4]): 0.031 µM; Emax (Cannabinoid receptor 1 [5]): 29.5%; EC50 (Cannabinoid receptor 2 [6]): 0.00128 µM; Kb (Cannabinoid receptor 2 [18]): 0.0782 µM; Emax (Cannabinoid receptor 2 [12]): -13%
CCCCCc1cc(OC)cc(OCCCCCCCCCCC(=O)NC(CO)CO)c1 | 0.35 | 0.598 | 0.6 | 
CCCCCc1cc(OCCCC)cc(OCCCCCCCCCCC(=O)NC2CC2)c1 | 0.0113 | 0.0215 | 0.5 | 
C=CCNC(=O)CCCCCCCOc1cc(OC)cc(C(C)(C)CCCCCC)c1 | 0.0076 | 0.0312 | 0.2 | 
CCCCCCC(C)(C)c1cc(OC)cc(OCCCCCCCC(=O)NCC(F)(F)F)c1 | 0.0535 | 0.0928 | 0.6 | 
CCCCCCC(C)(C)c1cc(OC)cc(OCCCCCCCCCCC(=O)NC2CC2)c1 | 0.28 | 0.0261 | 10.7 | 
